Literature values as cited in patent US20070160648A1, “Methods for treating otic disorders” (pSivida Inc., priority 2002, published 2007).

- patients displaying some vestibular impairment (one gram of streptomycin daily for 60 to 120 days): 25%
Structure (SMILES): [H]/N=C(/N)N[C@H]1[C@H](O)[C@@H](O)[C@H](O[C@@H]2O[C@@H](C)[C@](O)(C=O)[C@H]2O[C@@H]2O[C@@H](CO)[C@H](O)[C@@H](O)[C@@H]2NC)[C@@H](N/C(N)=N\[H])[C@@H]1O [streptomycin]
- incidence of vestibular impairment (two grams per day): 75%
